Assay results published in article PMC6017585, “Molecular Basis for Converting (2S)-Methylsuccinyl-CoA Dehydrogenase into an Oxidase” (Molecules : A Journal of Synthetic Chemistry and Natural …, 2017).

Key:
[1] = target: T1, (2S)-methylsuccinyl-CoA dehydrogenase (Mcd) (Cereibacter sphaeroides, UniProt D3JV03); conditions: ETF as electron acceptor (55 µM), pH 7.8, 30 °C
[2] = target: T2, (2S)-methylsuccinyl-CoA dehydrogenase (Mcd) (Cereibacter sphaeroides, UniProt D3JV03, W315F/T317G/E377N); conditions: dioxygen as electron acceptor, substrate made in situ from ethylmalonyl-CoA, pH 7.8, 30 °C
[3] = target: (2S)-methylsuccinyl-CoA dehydrogenase (Mcd) (Cereibacter sphaeroides, UniProt D3JV03, T317G); conditions: dioxygen as electron acceptor, substrate made in situ from ethylmalonyl-CoA, pH 7.8, 30 °C
[4] = target: T3, ETF (electron transfer flavoprotein) (Cereibacter sphaeroides, UniProt Q9AQC3+Q9AQC4); assay: absorbance of ETF-bound FAD at […] nm; assay type: binding; conditions: 55 µM ETF reduced by 0.1 µM Mcd, pH 7.8, 30 °C
T3 construct: gene etfA; plasmid pTE392 (pCDFDuet-1), alpha subunit N-terminal His6-tag, E. coli BL21 (DE3), heterodimer

[5] = target: T1, (2S)-methylsuccinyl-CoA dehydrogenase (Mcd); conditions: holoenzyme, pH 7.7, 25 °C
[6] = target: T2, (2S)-methylsuccinyl-CoA dehydrogenase (Mcd); conditions: FAD-reconstituted enzyme, 12 µM (2S)-methylsuccinyl-CoA, pH 7.5

T2 sequence (D3JV03 whole entry W315F/T317G/E377N): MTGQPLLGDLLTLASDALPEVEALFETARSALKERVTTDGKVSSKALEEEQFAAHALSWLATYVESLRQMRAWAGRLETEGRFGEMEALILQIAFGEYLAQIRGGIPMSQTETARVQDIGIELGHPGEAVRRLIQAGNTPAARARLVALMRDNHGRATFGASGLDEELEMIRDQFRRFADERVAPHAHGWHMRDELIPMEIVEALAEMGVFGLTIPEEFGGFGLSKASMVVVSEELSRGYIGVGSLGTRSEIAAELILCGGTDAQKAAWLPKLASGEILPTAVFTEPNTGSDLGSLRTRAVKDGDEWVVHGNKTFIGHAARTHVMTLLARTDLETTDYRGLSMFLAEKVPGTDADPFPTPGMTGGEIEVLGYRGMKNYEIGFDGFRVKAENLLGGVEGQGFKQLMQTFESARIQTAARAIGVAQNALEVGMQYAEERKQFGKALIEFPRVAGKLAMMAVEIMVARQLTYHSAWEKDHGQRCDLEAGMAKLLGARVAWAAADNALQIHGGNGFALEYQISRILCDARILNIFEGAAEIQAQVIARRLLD
T1 sequence (D3JV03 whole entry): as the sequence (D3JV03 whole entry W315F/T317G/E377N) above, with F315W, G317T, N377E counted along it
T3 sequence (Q9AQC4 entry or part of it): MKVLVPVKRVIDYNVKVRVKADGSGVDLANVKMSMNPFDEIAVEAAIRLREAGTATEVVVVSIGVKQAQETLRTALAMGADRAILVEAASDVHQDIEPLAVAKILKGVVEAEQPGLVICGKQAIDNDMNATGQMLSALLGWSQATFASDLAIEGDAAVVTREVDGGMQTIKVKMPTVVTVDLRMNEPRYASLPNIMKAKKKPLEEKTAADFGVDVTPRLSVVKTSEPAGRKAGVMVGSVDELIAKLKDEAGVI
T3 sequence (Q9AQC3 entry or part of it): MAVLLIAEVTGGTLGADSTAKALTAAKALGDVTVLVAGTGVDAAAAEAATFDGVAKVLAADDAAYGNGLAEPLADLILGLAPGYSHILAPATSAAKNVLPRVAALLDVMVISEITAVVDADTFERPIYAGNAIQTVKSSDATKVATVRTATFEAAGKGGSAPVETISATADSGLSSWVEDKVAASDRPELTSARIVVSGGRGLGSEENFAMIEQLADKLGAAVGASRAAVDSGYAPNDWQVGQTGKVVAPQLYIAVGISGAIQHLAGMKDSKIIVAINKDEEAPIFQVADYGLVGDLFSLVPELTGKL
Chain of (2S)-methylsuccinyl-CoA dehydrogenase (Mcd) (Cereibacter sphaeroides, UniProt D3JV03, T317G) (D3JV03 whole entry T317G): as the sequence (D3JV03 whole entry W315F/T317G/E377N) above, with F315W, N377E counted along it

| SMILES | LC-MS mesaconyl-CoA formation; FAD / ETF absorbance at 440 nm [1] | LC mesaconyl-CoA formation; FAD absorbance at 440 nm [2] | LC mesaconyl-CoA formation; FAD absorbance at 440 nm [3] | absorbance of ETF-bound FAD at 440 nm [4] | co-purification; visible absorbance of bound flavin at 440 nm [5] | 50 kDa ultrafiltration of FAD; flow-through spectrum [6] |
| --- | --- | --- | --- | --- | --- | --- |
| C[C@@H](CC(=O)O)C(=O)SCCNC(=O)CCNC(=O)[C@H](O)C(C)(C)COP(=O)(O)OP(=O)(O)OC[C@H]1O[C@@H](n2cnc3c(N)ncnc32)[C@H](O)[C@@H]1OP(=O)(O)O (mixture of isomers) [(2S)-methylsuccinyl-CoA] | Mcd showed a fast electron transfer from the CTC to ETF | The re-oxidation of the two enzymes was accompanied by product (mesaconyl-CoA) formation | The re-oxidation of the two enzymes was accompanied by product (mesaconyl-CoA) formation | – | – | – |
| Cc1cc2nc3c(=O)[nH]c(=O)nc-3n(C[C@H](O)[C@H](O)[C@H](O)COP(=O)(O)OP(=O)(O)OC[C@H]3O[C@@H](n4cnc5c(N)ncnc54)[C@H](O)[C@@H]3O)c2cc1C [FAD] | – | – | – | allowed for the direct observation of ETF-bound FAD | Concentration of Mcd, which eluted with bound FAD cofactor | FAD does not dissociate from the enzyme during catalysis |
